{
  "source": "patent US8568802B2",
  "about": "“Process for producing enriched fractions of tetrahydroxycurcumin and tetrahydrotetrahydroxy-curcumin from the extracts of Curcuma longa” (Laila Impex, priority 2005, dated 2013)",
  "key": {"5-Lipoxygenase": {"system": "5-Lipoxygenase", "test": "5-Lipoxygenase inhibitory activity (colorimetric, ferric xylenol orange)", "format": "biochemical", "description": "5-Lipoxygenase activity: The enriched fraction of tetrahydroxycurcumin mixture, pure TC and tetrahydrotetrahydroxycurcumin fraction were screened for their 5-Lipoxygenase inhibitory potential using colorimetric method. The assay mixture contained 50 mM phosphate buffer pH 6.3, 5-Lipoxygenase, various concentrations of test substances in dimethyl sulphoxide and linoleic acid in a total volume of 0.5 mL, after 5 min incubation of above reaction mixture, 0.5 mL ferric xylenol orange reagent was added and OD was measured after two minutes at 585 nm using spectrophotometer. […] Percent inhibition was calculated by comparing absorbance of test solution with that of control."}, "[1]": {"system": "carrageenin induced paw edema", "test": "Anti-inflammatory activity (carragenin induced paw edema method)", "format": "in vivo, Albino wistar rats", "details": "at 25 mg concentration, oral, paw volume 3 h after carrageenin", "description": "The invention also describes use of enriched tetrahydroxycurcumin fraction containing 70-100% of TC for treating anti-inflammatory conditions.\nAnti-inflammatory activity (Carragenin induced paw edema method): Prior to the experiment all the animals (Albino wistar rats of either sex weighing between 180-300 g) fasted at ad libitum water and were weighed, numbered and randomly divided into groups, each containing 3 animals. Initial paw volumes were measured using plethesmometer and noted. All the groups were treated with corresponding test substance orally using gastric tube. Control group was treated with 10 mL/Kg vehicle (0.5%, carboxymethyl cellulose sodium salt). After 30 minutes, all the animals were injected subcutaneously at subplantar region of left hind paw 1% carrageenin 0.1 mL using hypodermic needle. All the animals were administered water 20 mL/Kg body weight and kept devoid of water for 3 h (maintained uniform hydration). After 3 h, paw volumes of all the animals were measured twice and average volume from two measurements were recorded. The % of inhibition of paw edema was calculated by comparing paw edema of test substance treated groups with that of control groups."}},
  "data": [
    {"compound": "Acetyl-keto-boswellic acid [AKBA]", "values": [
      {"measurement": "% of inhibition (5-Lipoxygenase)", "setting": "5-Lipoxygenase; concentration 41 μg/mL", "result": 55, "unit": "%"}
    ]},
    {"compound": "O=C(O)Cc1ccccc1Nc1c(Cl)cccc1Cl", "note": "[diclofenac sodium]", "values": [
      {"measurement": "% inhibition of paw edema", "setting": "[1]", "result": 63.10, "unit": "%"}
    ]},
    {"compound": "O=C(/C=C/c1ccc(O)c(O)c1)CC(=O)/C=C/c1ccc(O)c(O)c1", "note": "[Pure tetrahydroxycurcumin (TC), 1,7-Bis(3,4-dihydroxyphenyl)-1,6-heptadiene-3,5-dione]", "values": [
      {"measurement": "% of inhibition (5-Lipoxygenase)", "setting": "5-Lipoxygenase; concentration 16 μg/mL", "result": 60, "unit": "%"},
      {"measurement": "melting point", "result": "302 to 304", "unit": "°C"}
    ]},
    {"compound": "CC(Cc1ccc(O)c(O)c1)C(C)Cc1ccc(O)c(O)c1", "note": "(centres unmarked) [NDGA, Nordihydroguaiaretic acid]", "values": [
      {"measurement": "% of inhibition (5-Lipoxygenase)", "setting": "5-Lipoxygenase; concentration 24 μg/mL", "result": 60, "unit": "%"}
    ]}
  ]
}
